Data published in patent publication US20110129868A1, “CELL CAPABLE OF REPLICATING NOVEL HCV REPLICON, CELL CAPABLE OF REPLICATING FULL-LENGTH HCV RNA, AND USE OF THOSE CELLS” (priority 2008, published 2011).

Experiments:
[1] = test system: full-length HCV RNA replication in ORL11 cells; test: microbe, parasite or virus in culture; format: cell-based, HCV-O strain (genotype 1b); conditions: for measured luciferase activity value: 24 hours after the addition, 750,000 without IFN-α
Experimental: (§1) Renilla luciferase was quantified by collecting cells using a Renilla Luciferase Assay System (Promega) according to the manufacturer's experiment protocol.
(§2) Luciferase activity of each cell line was then measured at hour 24, 48, and 72. […] SD values were calculated based on the results from three samples at each point. […]

[2] = test system: full-length HCV RNA replication in ORL8 cells; test: microbe, parasite or virus in culture; format: cell-based, HCV-O strain (genotype 1b); conditions: ORL8 cells; for measured luciferase activity value: 24 hours after the addition, 380,000 without IFN-α
Experimental: as §1, §2

[3] = test system: full-length HCV RNA replication in OR6 cells; test: microbe, parasite or virus in culture; format: cell-based, HCV-O strain (genotype 1b); conditions: OR6 cells
Excerpt: as §1
An OR6-cell assay system was used as a control.

[4] = test system: HCV replicon RNA replication in sORL8 (pool) cells; test: luciferase reporter assay using sORL8 (pool) cells; format: cell-based, HCV-O strain (genotype 1b); conditions: luciferase activity after 72 hours
Excerpt: as §1
(§3) In the ORN/3-5B/QR, KE, SR (replicon RNA)-introduced OL8c and OL11c cells, G418-resistant cells filled the dish in 2 weeks (FIG. 9). Because the whole cells were estimated to be several tens of thousands of colonies, the G418-resistant cells were mixed without cloning, and used as reporter gene-carrying replicon-replicating cells (sORL8 (pool) cells and sORL11 (pool) cells). These cells had luciferase activities measuring 8×10^5 and 15×10^5, respectively, in terms of actual measurement values per 2×10^5 cells (Promega assay kit). […] Note that the doubling time of the cells using a common subculture medium (in the presence of G418) was calculated as 53 hours and 40 hours. It was also confirmed that the replicon RNA in these cells were not incorporated into the host DNA (the results are not presented).
(§4) The same experiments were conducted using sORL8 (pool) cells and sORL11 (pool) cells.

[5] = test system: HCV replicon RNA replication in sORL11 (pool) cells; test: luciferase reporter assay using sORL11 (pool) cells; format: cell-based, HCV-O strain (genotype 1b); conditions: luciferase activity after 72 hours
Excerpt: as §1, §3, §4

ORL8 cells = test: cell count by trypan blue staining, ORL8 cells; format: cell-based, human; conditions: drug at the concentration corresponding to the EC50 value
ORL11 cells = test: cell count by trypan blue staining, ORL11 cells; format: cell-based, human
OR6 cells = test: cell count by trypan blue staining, OR6 cells; format: cell-based, human; conditions: drug at the concentration corresponding to the EC50 value
[6] = test system: full-length HCV RNA replication in OL8, OL11, and OL14 cells; conditions: IFN-α 50, 100, or 200 IU/ml every 4 days; 25 days; as in O cells
Excerpt: The colonies that appeared as G418 resistant cells were stained with CBB solution (FIG. 7). […] No G418-resistant cell colonies were obtained in OL14 cells.

[7] = test system: full-length HCV RNA replication in 1B-4RL8 cells; test: luciferase activity and HCV RNA level in 1B-4RL8 cells; format: cell-based, HCV strain 1B-4 (genotype 1b); conditions: 24 hours after the addition of IFN-α (1, 10, 100 IU/ml)
Experimental: (§5) Total RNA was extracted from the HCV RNA replicating cells using an RNeasy Mini Kit (Qiagen) according to the manufacturer's experiment protocol. First, using 2 μg of RNA as a template, reverse transcription (RT) reaction was performed with SuperScript™ II reverse transcriptase (Invitrogen) and the primer 319R below according to the manufacturer's experiment protocol. HCV RNA was quantified by real-time LightCycler PCR, using the resulting cDNA as a template. Real-Time LightCycler PCR was performed based on the method previously reported by the present inventors (reference: Acta Med. Okayama 56, 107-110, 2002), using the primers 104 and 197R below.
as §1
(§6) The 1B-4RL8 and KAH5RL8 cells were examined with regard to a possible correlation between luciferase activity and HCV RNA level (FIG. 49). The graphs on the left represent the measured luciferase activities 24 hours after the addition of IFN-α (0, 1, 10, 100 IU/ml) to the 1B-4RL8 and KAH5RL8 cells (each cultured for 2 days after inoculating 2×10^4 cells in a 24-well plate). Measurements were made in at least 3 wells at each point. A one hundred percent measurement value of 300,000 was obtained for the 1B-4RL8 and KAH5RL8 cells. […]

[8] = test system: full-length HCV RNA replication in KAH5RL8 cells; test: luciferase activity and HCV RNA level in KAH5RL8 cells; format: cell-based, HCV strain KAH5 (genotype 1b); conditions: 24 hours after the addition of IFN-α (1, 10, 100 IU/ml)
Experimental: as §5, §1, §6

[9] = 24 hours after the addition of IFN-α (1, 10, 100 IU/ml)
[10] = drug concentrations based on the EC50 values

IFN-α
measured luciferase activity value ([1]; 1 IU/ml IFN-α): 300,000
measured luciferase activity value ([1]; 10 IU/ml IFN-α): 76,000
measured luciferase activity value ([1]; 100 IU/ml IFN-α): 27,000
luciferase activity and HCV RNA level [1, 9]: decreased in a manner that depended on IFN-α concentration
luciferase activity after treatment (single agent or combined use) ([1]; IFN-α at 0.25 IU/ml, ribavirin at 12.5 W): 48%
luciferase activity after treatment (single agent or combined use) [1, 10]: 41%
luciferase activity and HCV RNA level [2, 9]: decreased in a manner that depended on IFN-α concentration
luciferase activity after treatment (single agent or combined use) ([2]; IFN-α at 0.25 IU/ml, ribavirin): 26%
measured luciferase activity value ([2]; addition of 1 IU/ml IFN-α): 113,000
measured luciferase activity value ([2]; addition of 10 IU/ml IFN-α): 36,000
measured luciferase activity value ([2]; addition of 100 IU/ml IFN-α): 19,000
luciferase activity after treatment (single agent or combined use) [2, 10]: 50%
luciferase activity after treatment (single agent or combined use) ([3]; IFN-α at 0.25 IU/ml, ribavirin): 75%
luciferase activity after treatment (single agent or combined use) [3, 10]: 67%
EC50 ([3]; luciferase activity after 72 hours): 0.40 IU/ml
EC50 [4]: 0.14 IU/ml
EC50 [5]: 0.25 IU/ml
cell count over the control cells (ORL8 cells): ≥ 95%
cell count over the control cells (ORL11 cells): ≥ 95%
cell count over the control cells (OR6 cells): ≥ 95%
sensitivity of full-length HCV RNA replication (G418-resistant colonies) [6]: highly sensitive
luciferase activity and HCV RNA level [7]: decreased in a manner that depended on IFN-α concentration
luciferase activity and HCV RNA level [8]: decreased in a manner that depended on IFN-α concentration
